Source: PMC8469962, “Unusual Bicyclo[3.2.1]Octanoid Neolignans from Leaves of Piper crocatum and Their Effect on Pyruvate Dehydrogenase Activity” (Plants, 2021)
Entries after “also recorded” stand apart in the source; their conditions may differ.

System: PDHE1α S300 phosphorylation
Assay: Pyruvate dehydrogenase complex (PDH) cellular activity: immunofluorescence of p-PDH E1α (Ser300) in AD-293 cells
Format: cell-based, Human
Conditions: for IC50: Homo sapiens, AD293, 24 h incubation, normalized to 5 mM DCA control, read-out: IC50, inhibition of PDHE1α S300 phosphorylation; for inhibition of phosphorylation of E1α S300 in fluorescent images, compared with DCA: compounds at 60 µM, DCA at 5 mM
Experimental: Point two percent gelatin was added to a black 96-well plate with a clear bottom and incubated for 1 h. Afterwards, the plate was washed with growth media. Human AD-293 cells, derived from the HEK293 cells, were seeded into black 96-well plates with a clear bottom and grown for 24 h. Compounds were then added and incubated for 24 h. The cells were then fixed with 2% paraformaldehyde, and permeabilized anti-PDHE1 pSer300 (Merk Millipore, Burlington, MA, AP1064) was added and incubated overnight. Next, the cells were washed and Alexa fluor 488, goat anti-rabbit ab (Invitrogen, Waltham, MA, A11008) was added with Hoechst 33,258 (Invitrogen, H3569) and incubated for 2 h. Finally, cells were washed, and the plates were measured in Operetta (PerkinElmer, Waltham, MA). The raw data were normalized for the pharmacological inhibitor control (5 mM dichloroacetate (DCA)) and percentage effect values using the software package Harmony High-Content Imaging and Analysis Software 3.1. Dose response curves were generated by plotting the percentage effect values and IC50 values were calculated via GraphPad Prism 6.

SMILES	IC50	inhibition of phosphorylation of E1α S300 in fluorescent images, compared with DCA
C=CCC12C=C(OC)C(=O)C(OC)(C(c3cc(OC)c(OC4OC(CO)C(O)C(O)C4O)c(OC)c3)C1C)C2O [Compound 2, (1′R,2′R,3′S,7S,8R)-∆^5′^,8′-2′-hydroxy-3,5,3′,5′-tetramethoxyl-4′-oxo-8.1′7.3′-neolignan-4-O-β-D-glucopyranoside]	99.8 µM	better effect than that of dichloroacetate (DCA); also recorded: better inhibitory effect of compound 2 than that of compound 3 and DCA
C=CCC1=CC2(OC)C(C)C(c3cc(OC)c(OC4OC(CO)C(O)C(O)C4O)c(OC)c3)C(OC)(C1=O)C2O [Compound 3, (1′R,2′S,3′R,7S,8R)-∆^5′^8′-2′-hydroxy-3,5,1′,3′-tetramethoxyl-4′-oxo-8.1′7.3′-neolignan-4-O-β-D-glucopyranoside]	80.2 µM	better effect than that of dichloroacetate (DCA)
